For orientation: IC50 means the point on the concentration scale where inhibition reaches its midpoint.

Structures are written as SMILES.

In one test the target is human P2X7 receptor (Homo sapiens, UniProt Q99572, R270H/Y155H). The test can be described thus: Evaluation of a human P2X7 receptor inhibitory activity (Yo-Pro uptake, BzATP stimulation, FLIPR TETRA). The format is cell-based. The conditions noted are these: 1321N1 cells expressing human P2X7 receptor; BzATP stimulation, Yo-Pro uptake; read-out: IC50 (antagonistic activity for the human P2X7 receptor). The method, then:
Test Example 1 Evaluation of a Human P2X7 Receptor Inhibitory Activity
Stably expressing cell line (1321N1 cell transfected with the human P2X7 receptor gene (GenBank accession number NM_002502.5 including T606C and G952A SNP)) was used. The cells were seeded in a 384-well microtiter plate at a concentration of 8000 cells/well and cultured in the medium (10% fetal bovine serum, 25 mM HEPES, 1% penicillin and streptomycin in DMEM) for one day at 37° C. under 5% carbon dioxide atmosphere. After replacing with 20 μL of the HBSS buffer (20 mM HEPES, 55.6 mM D-glucose, 1×HBSS(−), pH7.4-7.5). 16 μL of 17.3 μM Yo-Pro solution in the HBSS buffer was added. The plate was placed in high-throughput cellular screening system FLIPR TETRA (Molecullar Devices, LLC.) and 15 μL of 130 μM BzATP solution in the HBSS buffer was added. Measurement, of fluorescence intensity by FLIPR TETRA was started. After eight minutes, 15 μL of DMSO solutions containing different concentrations of the compound of the present invention as prepared by dilution with the HBSS buffer were dispensed to each well through the built-in automatic dispenser, and the measurement of fluorescence intensity was continued for 20 minutes. […] Changing values of fluorescence intensity by the compound of the present invention were calculated by difference between maximum and minimum fluorescence intensity for 20 minutes. Inhibition ratios (%) were calculated from the following equation:
[formula] IC50 was calculated using Logistic approximation.
As for `COc1cn(Cc2ccc(F)c(Cl)c2)c(Nc2cc3sc(C)nc3cc2C)cc1=O` [Compound I-0033], the IC50 is 49 nM.

Consider `COc1cn(Cc2ccc(F)c(Cl)c2)c(Oc2cc(C)c(C)cc2C)nc1=O` [Compound I-0358], for which the IC50 came to 160 nM.

As to `COc1cn(Cc2cc(F)cc(F)c2)c(NCc2cccc(Cl)c2C)nc1=O` [Compound I-0452], the IC50 was determined as 110 nM.

The test is the same for the next values; noted with them: 1321N1 cells expressing human P2X7 receptor; BzATP stimulation, Yo-Pro uptake; read-out: IC50 (antagonistic activity for the human P2X7 receptor), class.
For the compound `Cc1c(Cl)cccc1Nc1nc(=O)c(OOC(C)(C)C)cn1Cc1ccccc1` [Compound I-0111], the IC50 was 100 to 500 nM.

`COc1cn(Cc2ccccc2)c(Nc2cccc(C)c2Cl)nc1=O` [Compound I-0112]: the IC50 was 10 to 100 nM.

`COc1cc(C)c(Nc2nc(=O)c(OC)cn2Cc2cccc(F)c2)cc1C` [Compound I-0249]: the IC50 was under 10 nM.

`COc1cn(Cc2ccccc2)c(Oc2cc(C)c(C)cc2C)nc1=O` [Compound I-0357]: the IC50 lay within 500 to 1000 nM.

As to `COc1cn(Cc2cccc(OC(F)F)c2)c(Nc2cccc(Cl)c2C)nc1=O` [Compound I-0422], the IC50 lay in the range of 500 to 1000 nM.

Consider `COc1cc(C)c(Nc2nc(=O)c(OC)cn2Cc2cc(F)cc(Cl)c2)cc1C` [Compound I-0446], for which the IC50 is under 10 nM.

As to `CCc1cc(OC)ccc1Nc1nc(=O)c(OC)cn1Cc1cc(F)cc(Cl)c1` [Compound I-0447], the IC50 was under 10 nM.

For `COc1cn(Cc2ccccc2)c(Nc2cc(S(C)(=O)=O)c(C)cc2C)nc1=O` [Compound I-0448], the IC50 fell in the range of 10 to 100 nM.

Regarding `COc1cn(Cc2ccc(F)c(Cl)c2)c(Nc2cc(S(C)(=O)=O)c(C)cc2C)nc1=O` [Compound I-0449], the IC50 was under 10 nM.

As to `CCc1ccc(F)cc1Nc1nc(=O)c(OC)cn1Cc1ccccc1` [Compound I-0450], the IC50 fell in the range of 10 to 100 nM.

On to `CCOc1ccc(C)c(Nc2nc(=O)c(OC)cn2Cc2ccc(F)c(F)c2)c1` [Compound I-0457], for which the IC50 was under 10 nM.

Take `CCOc1ccc(C)c(Nc2nc(=O)c(OC)cn2Cc2cc(F)cc(F)c2)c1` [Compound I-0458]: the IC50 was 10 to 100 nM.

In the case of `CCOc1ccc(C)c(Nc2nc(=O)c(OC)cn2Cc2ccc(F)c(Cl)c2)c1` [Compound I-0459], the IC50 is under 10 nM.

Turning to `CCOc1ccc(C)c(Nc2nc(=O)c(OC)cn2Cc2cc(F)cc(Cl)c2)c1` [Compound I-0460], the IC50 lay within 10 to 100 nM.

With `COc1cn(Cc2ccc(F)c(F)c2)c(Nc2ccc(C)cc2C)nc1=O` [Compound I-0461], the IC50 was under 10 nM.

Consider `COc1cn(Cc2cc(F)cc(Cl)c2)c(Nc2ccc(C)cc2C)nc1=O` [Compound I-0462], for which the IC50 is 10 to 100 nM.

With `COc1cn(Cc2cc(F)cc(F)c2)c(Nc2ccc(C)cc2C)nc1=O` [Compound I-0463], the IC50 was under 10 nM.

For the compound `COc1cc(C)c(Nc2nc(=O)c(OC)cn2Cc2ccccc2)cc1Cl` [Compound I-0464], the IC50 was under 10 nM.

In the case of `COc1cc(C)c(Nc2nc(=O)c(OC)cn2Cc2ccc(F)c(Cl)c2)cc1Cl` [Compound I-0465], the IC50 is under 10 nM.

With `COc1cn(Cc2cccc(Cl)c2)c(Nc2cccc(C(F)(F)F)c2C)nc1=O` [Compound I-0466], the IC50 was in the range of 10 to 100 nM.

In the case of `COc1cc(Nc2nc(=O)c(OC)cn2Cc2cccc(F)c2)c(C)cc1Cl` [Compound I-0474], the IC50 was under 10 nM.

Take `COc1cc(Nc2nc(=O)c(OC)cn2Cc2ccc(F)cc2)c(C)cc1Cl` [Compound I-0475]: the IC50 is under 10 nM.

`COc1cccc(Nc2nc(=O)c(OC)cn2Cc2cccc(Cl)c2)c1C` [Compound I-0476]: the IC50 was under 10 nM.

In the case of `COc1cccc(Nc2nc(=O)c(OC)cn2Cc2ccc(F)c(F)c2)c1C` [Compound I-0477], the IC50 was under 10 nM.

Take `COc1cccc(Nc2nc(=O)c(OC)cn2Cc2ccc(F)c(Cl)c2)c1C` [Compound I-0478]: the IC50 is under 10 nM.

Regarding `COc1cn(Cc2cc(F)cc(Cl)c2)c(Nc2cc(OCC(F)(F)F)ccc2C)nc1=O` [Compound I-0498], the IC50 fell in the range of 100 to 500 nM.

The same test, now with this note: antagonistic activity for the human P2X7 receptor; 1321N1 cells expressing human P2X7, BzATP-stimulated Yo-Pro uptake; read-out: IC50.
As for `COc1cn(Cc2cc(F)c(F)c(F)c2)c(Cc2cccc3[nH]c(=O)ccc23)nc1=O` [Compound I-0602], the IC50 lay in the range of 100 to 500 nM.

`COC1CN(Cc2ccc(F)c(F)c2)C(Nc2cc(S(C)(=O)=O)c(C)cc2C)=NC1=O` (stereo not drawn) [Compound I-0605]: the IC50 is 10 to 100 nM.

With `COc1cn(Cc2ccccc2)c(Nc2ccc(C)cc2F)nc1=O` [Compound I-0762], the IC50 lay within 100 to 500 nM.

Consider `COc1cn(Cc2ccc(F)c(Cl)c2)c(Nc2c(C)cc3c(c2C)COC3)nc1=O` [Compound I-0907], for which the IC50 was under 10 nM.

Consider `COc1cc(C)c(Nc2nc(=O)cc(C)n2Cc2cc(F)c(F)c(F)c2)cc1OC` [Compound I-1153], for which the IC50 was under 10 nM.

Regarding `COc1ccc(NC2=NC(=O)CC(C)N2Cc2cc(F)c(F)c(F)c2)c(C)c1` (stereo not drawn) [Compound I-1167], the IC50 is under 10 nM.

As for `Cc1cc(F)c(-c2cccn(C)c2=O)cc1Nc1nc(=O)c(F)cn1Cc1cc(F)c(F)c(F)c1` [Compound I-1222], the IC50 is under 10 nM.

The record behind these values is patent US11124486B2, “6-membered heterocyclic derivatives and pharmaceutical composition comprising the same” (Shionogi & Co., Ltd., priority 2015, dated 2021).
